Reference: US20260373193A1, “CARCINOGENESIS REDUCTION WITH PENTAAZA MACROCYLIC RING COMPLEX” (GALERA LABS, LLC, priority 2023, published 2026)
Entries after “also recorded” stand apart in the source; their conditions may differ.

Experiments:
oral mucositis = details: head-and-neck cancer patients, chemoradiation, Phase IIB; cited from earlier work
lung masses = test: incidence of lung masses at necropsy; format: in vivo, mouse (female BALB/c); details: for # Lung Masses / % Yield (percentage mice with lung masses): GC4419 24 mg/kg i.p.; for occurrence of lung masses vs untreated / incidence of lung tumors vs untreated: final results (FIG. 4)
Method: (§1) All animal studies conducted used female BALB/c mice irradiated at 77-91 days of age and housed for a lifetime study to determine rates of carcinogenesis and survival. Animals were purchased from Charles River Laboratory, shipped to Brookhaven National Laboratory, and irradiated with the doses and ion species described below.
(§2) Animals were treated or not with GC4419. Those animals treated with GC4419 followed the following strategy. GC4419 was delivered at a dose of 24 mg/kg (mice were weighed prior to drug delivery) interperitoneally (i.p.) at roughly 45-60 minutes prior to radiation exposure. GC4419 was then provided i.p. for the next 6 days, and the animals were shipped to UT Southwestern (UTSW) Medical Center for temporary quarantine before returning to the animal facility. Upon return to UTSW the animals were treated with GC4419 i.p. weekly for another 11 weeks for a total of 12 weeks on treatment.
(§3) Radiation exposures were whole body. The galactic cosmic ray (GCR) simulation exposures used the beam line at the NASA Space Radiation Laboratory at Brookhaven National Lab (BNL) and the γ-ray exposures used a ^137Cs source at BNL. Subsequent to single dose irradiation, animals were returned to their cages.
(§4) Galactic cosmic rays (GCR) are heavy ion radiation characteristic of the deep space environment, and the GCR simulation (GCRsim) at BNL mimics the complex radiation environment in space. The GCRsim ions used are described in Table 1 below.
(§5) Pathological endpoints were also considered. Specifically, lung cancer induction, or carcinogenesis, and other tumors that are evident in numbers large enough to consider as secondary endpoints. These endpoints are described in the following tables and figure. The term “masses” is used to describe an abnormal growth, evident by eye, within a given tissue; for example, the term “lung masses” is used to describe abnormal tissues found in the lung that are collected for pathologic examination.
(§6) Given prior experience with the mouse model of radiation-induced carcinogenesis, it is expected that most, if not all, of the lung masses are tumors. For the ovarian masses, some proportion of the masses are expected to be tumors. For observations of hepatosplenomegaly, many of the enlarged livers and spleens may not reflect tumors of those organs. These may, however, may be present as result of hematologic malignancies, such as leukemias, but that was not assessed in this experiment.
Table 2 presents the incidence of lung masses observed at necropsy by treatment cohort, including preliminary data for certain γ-ray cohorts through approximately 600 days post-irradiation and for unirradiated animals treated with GC4419 (Control+GC4419) cohort through approximately 400 days post-irradiation. FIG. 4 presents final results for incidence of lung masses. […] In other words, in part GC4419 could have delayed carcinogenesis.

[1] = tested on: acute and sub-chronic radiation damage; platinum therapy kidney damage; details: mucositis, pulmonary pneumonitis and fibrosis, liver damage; cited from earlier work
female BALB/c mice = test: long-term survival of irradiated and unirradiated mice treated or not with GC4419; format: in vivo, mouse (female BALB/c)
Method: as §1, §2, §3, §4
FIGS. 1A-1D represent survival in cohorts where animals were exposed to single dose whole-body γ-rays or not irradiated (Control), and treated or not with GC4419. FIGS. 1A-1B present preliminary results through approximately 400-600 days post-irradiation depending on the cohort. FIGS. 1C-1D present final results. As expected, the survival curves show in the animals not treated with GC4419, trends to survival decreasing with increasing γ-ray dose from unirradiated Control to 0.75 Gy (FIGS. 1B & 1D) to 1.5 Gy (FIGS. 1A & 1C).
FIGS. 2A-2D represent survival in cohorts where animals were exposed to single dose whole-body GCRsim radiation or not irradiated (Control), and treated or not with GC4419. FIGS. 2A-2B present results, including preliminary data for unirradiated animals treated with GC4419 (Control+GC4419) cohort through approximately 400 days post-irradiation. FIGS. 2C-2D present final results for all the presented cohorts. As with γ-rays, the survival curves show in the animals not treated with GC4419, trends to survival decreasing with increasing GCRsim dose from unirradiated control to 0.4 Gy to 0.75 Gy. […] This may reflect that GCRsim is a combination of various radiations of varying carcinogenic potential curves.
FIGS. 3A-3C represent survival in cohorts where unirradiated animals (Control) were treated or not with GC4419. FIG. 3A presents results through approximately 400 days post-irradiation with the range of the y-axis covering 95-100% survival. FIG. 3B-3C present final results with the ranges of the y-axis covering 0-100% and 70-100% survival.

hepatosplenomegaly = test: incidence of hepatosplenomegaly at necropsy; format: in vivo, mouse (female BALB/c); details: for # Enlarged (hepatosplenomegaly) / % Yield (percentage of mice with hepatosplenomegaly): GC4419 24 mg/kg i.p.
Method: as §1, §2, §3, §4, §5, §6
Table 4 presents the incidence of hepatosplenomegaly observed at necropsy by treatment cohort, in general through approximately 700 days, for certain γ-ray cohorts through approximately 600 days post-irradiation, and for unirradiated animals treated with GC4419 (Control+GC4419) cohort through approximately 400 days post-irradiation.

[2] = tested on: ovarian masses or hemorrhagic cysts; test: incidence of ovarian masses or hemorrhagic cysts at necropsy; format: in vivo, mouse (female BALB/c); details: for # Ovary Masses/Cysts / % Yield (percentage of mice with ovarian masses or hemorrhagic cysts): GC4419 24 mg/kg i.p.; for occurrence of ovarian masses and hemorrhagic cysts vs untreated: final results (FIG. 4)
Method: as §1, §2, §3, §4, §5, §6
Table 3 presents the incidence of ovarian masses and hemorrhagic cysts observed at necropsy by treatment cohort, including preliminary data for certain γ-ray cohorts through approximately 600 days post-irradiation and for unirradiated animals treated with GC4419 (Control+GC4419) cohort through approximately 400 days post-irradiation. FIG. 4 presents final results for incidence of ovarian masses and hemorrhagic cysts.

[3] = unirradiated (0 Gy), 235 mice, preliminary, approx. 400 days
[4] = unirradiated (0 Gy), 235 mice, preliminary, approx. 400 days, untreated pair 10.6
[5] = γ-ray 0.75 Gy, 248 mice, preliminary for certain γ-ray cohorts (approx. 600 days)
[6] = γ-ray 1.5 Gy, 248 mice, preliminary for certain γ-ray cohorts (approx. 600 days)

Structure (SMILES): [Cl][Mn][Cl].c1cc2nc(c1)CN[C@H]1CCCC[C@@H]1NCCN[C@H]1CCCC[C@@H]1NC2 [GC4419]
- oral mucositis (oral mucositis): reduce oral mucositis
- # Lung Masses (lung masses; GCRsim 0.4 Gy, 224 mice): 24
- % Yield (percentage mice with lung masses) (lung masses; GCRsim 0.4 Gy, 224 mice, untreated pair 10.0): 10.7%
- # Lung Masses (lung masses; GCRsim 0.75 Gy, 248 mice): 27
- % Yield (percentage mice with lung masses) (lung masses; GCRsim 0.75 Gy, 248 mice, untreated pair 21.0): 10.9%
- occurrence of lung masses vs untreated (lung masses; GCRsim 0.75 Gy, p<0.01): markedly and statistically significantly decreased occurrence of lung masses
- # Lung Masses (lung masses; [3]): 1
- % Yield (percentage mice with lung masses) (lung masses; [4]): 0.4%
- incidence of lung tumors vs untreated (lung masses; unirradiated (Control)): absence of a clear difference
- # Lung Masses (lung masses; [5]): 15
- % Yield (percentage mice with lung masses) (lung masses; γ-ray 0.75 Gy, 248 mice, preliminary for certain γ-ray cohorts (approx. 600 days), untreated pair 14.7): 6.0%
- occurrence of lung masses vs untreated (lung masses; γ-ray 0.75 Gy, p<0.05): markedly and statistically significantly decreased occurrence of lung masses
- # Lung Masses (lung masses; [6]): 16
- % Yield (percentage mice with lung masses) (lung masses; γ-ray 1.5 Gy, 248 mice, preliminary for certain γ-ray cohorts (approx. 600 days), untreated pair 11.9): 6.5%
- incidence of lung tumors vs untreated (lung masses; γ-ray 1.5 Gy): absence of a clear difference
- overt acute and sub-chronic radiation damage; platinum therapy kidney damage [1]: reduce overt acute and sub-chronic radiation damage
- survival vs irradiated untreated (female BALB/c mice; GCRsim 0.4 Gy, 24 mg/kg i.p., final results): neither increases nor decreases survival
- survival vs irradiated untreated (female BALB/c mice; GCRsim 0.75 Gy, 24 mg/kg i.p., final results, p<0.05): statistically significantly increased survival
- survival vs unirradiated untreated (female BALB/c mice; unirradiated (Control), 24 mg/kg i.p., final results, p<0.01 (FIGS. 3A-3C), 24 mg/kg): statistically significantly increased survival; also recorded: appears to increase survival in unirradiated animals
- survival, overall (female BALB/c mice; variety of radiation types and doses): appears to have an effect on survival in animals exposed to a variety of radiation types and doses
- survival vs unirradiated animals not treated with GC4419 (female BALB/c mice; γ-ray 0.75 Gy, 24 mg/kg i.p., final results): equivalent survival to unirradiated animals not treated with GC4419
- survival vs irradiated untreated (female BALB/c mice; γ-ray 0.75 Gy, 24 mg/kg i.p., final results, p<0.01 (FIG. 1D)): statistically significantly increased survival
- survival vs irradiated untreated (female BALB/c mice; γ-ray 1.5 Gy, 24 mg/kg i.p., final results, p<0.05 (FIG. 1C)): statistically significantly increased survival
- # Enlarged (hepatosplenomegaly) (hepatosplenomegaly; GCRsim 0.4 Gy, 224 mice, approx. 700 days): 33
- % Yield (percentage of mice with hepatosplenomegaly) (hepatosplenomegaly; GCRsim 0.4 Gy, 224 mice, approx. 700 days, untreated pair 13.9): 14.7%
- # Enlarged (hepatosplenomegaly) (hepatosplenomegaly; GCRsim 0.75 Gy, 248 mice, approx. 700 days): 36
- % Yield (percentage of mice with hepatosplenomegaly) (hepatosplenomegaly; GCRsim 0.75 Gy, 248 mice, approx. 700 days, untreated pair 7.7): 14.5%
- # Enlarged (hepatosplenomegaly) (hepatosplenomegaly; unirradiated (0 Gy), 235 mice, approx. 400 days): 1
- % Yield (percentage of mice with hepatosplenomegaly) (hepatosplenomegaly; unirradiated (0 Gy), 235 mice, approx. 400 days, untreated pair 5.1): 0.4%
- hepatosplenomegaly incidence vs untreated (hepatosplenomegaly; within paired cohorts): no consistent trend to increased or decreased incidence within paired cohorts
- # Enlarged (hepatosplenomegaly) (hepatosplenomegaly; γ-ray 0.75 Gy, 248 mice, certain γ-ray cohorts approx. 600 days): 9
- % Yield (percentage of mice with hepatosplenomegaly) (hepatosplenomegaly; γ-ray 0.75 Gy, 248 mice, certain γ-ray cohorts approx. 600 days, untreated pair 10.6): 3.6%
- # Enlarged (hepatosplenomegaly) (hepatosplenomegaly; γ-ray 1.5 Gy, 248 mice, certain γ-ray cohorts approx. 600 days): 17
- % Yield (percentage of mice with hepatosplenomegaly) (hepatosplenomegaly; γ-ray 1.5 Gy, 248 mice, certain γ-ray cohorts approx. 600 days, untreated pair 7.5): 6.8%
- # Ovary Masses/Cysts ([2]; GCRsim 0.4 Gy, 224 mice): 26
- % Yield (percentage of mice with ovarian masses or hemorrhagic cysts) ([2]; GCRsim 0.4 Gy, 224 mice, untreated pair 12.5): 11.6%
- # Ovary Masses/Cysts ([2]; GCRsim 0.75 Gy, 248 mice): 43
- % Yield (percentage of mice with ovarian masses or hemorrhagic cysts) ([2]; GCRsim 0.75 Gy, 248 mice, untreated pair 24.2): 17.3%
- occurrence of ovarian masses and hemorrhagic cysts vs untreated ([2]; GCRsim 0.75 Gy): markedly decreased occurrence of ovarian masses and hemorrhagic cysts
- # Ovary Masses/Cysts [2, 3]: 0
- % Yield (percentage of mice with ovarian masses or hemorrhagic cysts) [2, 4]: 0.0%
- occurrence of ovarian masses and hemorrhagic cysts vs untreated ([2]; unirradiated): markedly decreased occurrence of ovarian masses and hemorrhagic cysts
- # Ovary Masses/Cysts [2, 5]: 22
- % Yield (percentage of mice with ovarian masses or hemorrhagic cysts) ([2]; γ-ray 0.75 Gy, 248 mice, preliminary for certain γ-ray cohorts (approx. 600 days), untreated pair 28.9): 8.8%
- occurrence of ovarian masses and hemorrhagic cysts vs untreated ([2]; γ-ray 0.75 Gy, statistically significant, p<0.05): markedly decreased occurrence of ovarian masses and hemorrhagic cysts
- # Ovary Masses/Cysts [2, 6]: 24
- % Yield (percentage of mice with ovarian masses or hemorrhagic cysts) ([2]; γ-ray 1.5 Gy, 248 mice, preliminary for certain γ-ray cohorts (approx. 600 days), untreated pair 21.7): 9.6%
